Active and inactive are the calls of the source. The rule behind the calls is not given here.
Experiments:
[1] = Cytotoxicity against human HuH7 cells assessed as survival rate at 10 uM after 24 hrs by MTT assay relative to control; format: cell-based, Huh-7; conditions: read-out: Survival
[2] = biological target: T1, Indoleamine 2,3-dioxygenase 1 (Homo sapiens, UniProt P14902); assay: Inhibition of IDO1 in IFNgamma-stimulated human HuH7 cells at 10 uM using L-tryptophan as substrate measured after 24 hrs relative to control
Target sequence in this assay (P14902 whole entry, looked up): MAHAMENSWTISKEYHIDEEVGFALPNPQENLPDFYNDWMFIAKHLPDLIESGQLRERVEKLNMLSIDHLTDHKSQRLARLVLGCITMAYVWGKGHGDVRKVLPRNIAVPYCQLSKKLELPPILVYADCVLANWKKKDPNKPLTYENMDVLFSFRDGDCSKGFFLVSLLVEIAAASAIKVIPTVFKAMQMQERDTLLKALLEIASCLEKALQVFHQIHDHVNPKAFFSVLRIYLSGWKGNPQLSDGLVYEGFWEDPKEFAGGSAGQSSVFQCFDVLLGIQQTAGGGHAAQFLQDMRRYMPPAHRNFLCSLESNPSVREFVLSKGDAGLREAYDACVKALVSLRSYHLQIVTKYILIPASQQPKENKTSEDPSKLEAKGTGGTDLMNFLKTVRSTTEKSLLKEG

[3] = biological target: T1, Indoleamine 2,3-dioxygenase 1; assay: Binding affinity to human HuH7 cell derived IDO1 expressed in Escherichia coli BL21 codon plus up to 10 uM by surface plasmon resonance analysis
Target sequence in this assay (P14902 whole entry, looked up): as above

[4] = biological target: T1, Indoleamine 2,3-dioxygenase 1; assay: Inhibition of human HuH7 cell derived IDO1 expressed in Escherichia coli BL21 codon plus using L-tryptophan as substrate measured after 1 hr by fluorescence assay
Target sequence in this assay (P14902 whole entry): as the sequence (P14902 whole entry, looked up) above

[5] = Cytotoxicity against human HuH7 cells assessed as survival rate at 1 uM after 24 hrs by MTT assay relative to control; format: cell-based, Huh-7; conditions: read-out: Survival
[6] = biological target: T1, Indoleamine 2,3-dioxygenase 1; assay: Inhibition of IDO1 in IFNgamma-stimulated human HuH7 cells at 1 uM using L-tryptophan as substrate measured after 24 hrs relative to control
Target sequence in this assay (P14902 whole entry, looked up): as above

SMILES | viability at 24 h, 10 µM [1] [%] | inhibition [2] [%] | Activity [3] | IC50 [4] [µM] | viability at 24 h, 1 µM [5] [%] | inhibition [6] [%]
Cc1c(-c2c(C)c(O)c3ccccc3c2O)oc2c1C(=O)C(=O)c1c-2ccc2c1CCCC2(C)C | 97.1 | 21 | Active | 4.1 | – | –
Cc1cccc2c3c(ccc12)C1=C(C(=O)C3=O)C(C)CO1 (configuration not stated) | – | – | Active | 1.3 | 94.7 | 54.3
Cc1coc2c1C(=O)C(=O)c1c-2ccc2c1C=CCC2(C)C | – | – | Active | 4.68 | 93 | 66.7

Reference: ChEMBL document CHEMBL4257491, “Discovery of indoleamine 2,3-dioxygenase inhibitors using machine learning based virtual screening” (Medchemcomm, 2018)
